Data: patent publication US20160346255A1, “METHODS, AGENTS AND COMPOSITIONS FOR TREATMENT OF INFLAMMATORY CONDITIONS” (Betanien Hospital, priority 2014, published 2016)
Non-standard residues stand in square brackets, D forms with d. Residues, ends and D or L forms follow the SMILES beside them. *: point of attachment. dPhe(4-NHCONH2) = NC(=O)Nc1ccc(C[C@@H](N)C(=O)O)cc1; Dihydroorotyl(S) = O=C1C[C@@H](C(=O)*)NC(=O)N1; dPhe(4-Cl) = N[C@H](Cc1ccc(Cl)cc1)C(=O)O; Phe(4-NH2) = Nc1ccc(C[C@H](N)C(=O)O)cc1; d2Nal = N[C@H](Cc1ccc2ccccc2c1)C(=O)O; Lys(iPr) = CC(C)NCCCC[C@H](N)C(=O)O; d3Pal = N[C@H](Cc1cccnc1)C(=O)O

Columns and labels:
Format in all cases: in vivo, human
peripheral GnRH = test: Peripheral GnRH levels by ELISA in patients on degarelix
Description: (§1) We analysed peripheral GnRH levels in patients with various autoimmune diseases using ELISA. […] Due to the nature of ELISA assays, the concentration in pg/mL should not necessarily be regarded as absolute, and may be interpreted as relative. RA Patient A Baseline GnRH 394 pg/mL, after 3 months of degarelix with loading dose 240 mg, and maintenance doses 80 mg every 2 weeks, GnRH 359 pg/mL. […] During that month/6 weeks […] general function had improved, for example MSIS-29 had reduced from 121 to 110. […] During that period their PASI score reduced by more than 20%. Healthy control 1 baseline GnRH 162 pg/mL, healthy control 2 baseline GnRH 120 pg/mL, healthy control 3 baseline GnRH 153 pg/mL.

[1] = as above; conditions: 3 months
Description: as §1

[2] = system: Patient with Ankylosing Spondylitis; test: Ankylosing spondylitis patient treated with degarelix (and earlier TNF inhibitors); conditions: for Glomerular filtration rate (>60): 10 Sep. 2014 56; for Creatinine (60-105 μmol/L): 10 Sep. 2014 112; for Urate (230-480 μmol/L): 10 Sep. 2014 515; for CRP: 10 Sep. 2014 <5; for BASDAI: baseline 8.7
Excerpt: Example of Treating a Patient with Ankylosing Spondylitis with a GnRH Antagonist
Diagnosed with ankylosing spondylitis in 1984, HLAB27 positive, with repeated iridocyclitis. Used non-steroidal anti-inflammatory drugs previously. They were offered the TNFα inhibitor Golilimumab in 2010. Their disease activity score was 8.9 in October 2010 (see below for explanation of disease activity score) on initiating Golilimumab; by the June 2012 this score had reduced to 6.6, but by May 2013 the effect had worn off and their score was 7.6. May 2013, they initiated Enbrel treatment, but their disease activity increased from 7.6 to 8.3. Due to their poor response to TNFα therapy, they were offered the GnRH antagonist degarelix in September 2014.
Disease activity in ankylosing spondylitis is measured by the BASDAI (Bath Ankylosing Spondylitis Disease Activity Index (1)), which has been extensively validated in clinical trials, 2, 3 and is one of the most commonly used outcome measures in clinical trials. This is a composite index that evaluates fatigue, axial and peripheral pain, stiffness and enthesopathy. Their BASDAI was at 8.7 at baseline. In September 2014 they received their first dose of degarelix 240 mg s.c. By 2 weeks, their BASDAI had reduced to 6.8, and by 6 weeks it had reduced to 5.8. This is the lowest BASDAI score they have ever had since we first started using this method of assessment 4 years ago in 2010. Their morning stiffness lasted 4 hours at baseline, by 6 weeks their morning stiffness had reduced to 2 hours. They had their second dose of degarelix 80 mg s.c in October 2014. Lumbar flexion and maximum arm abduction were increased after 6 weeks of treatment.
Response to therapy in clinical practice is defined as improvement of 2 units or 50% on a 0-10 scale of the BASDAI, and expert opinion that the treatment should be continued. Their reduction by 6 weeks was 2.9 units, and 7.1 units with an 82% BASDAI score improvement by 9 weeks, and we shall continue treatment. A BASDAI 50% improvement is defined as a major clinical response. […] For comparison, approximately 50-60% of patients achieve a BASDAI 50 by 12 weeks on TNF inhibitors (4). Their ESR has decreased from 46 mm to 23 mm, which is their lowest ESR reading in 19 years. […] By 9 weeks of GnRH antagonist therapy, their kidney function has normalized, and fasting glucose reduced from 7.4 to 6.5 mmol/L. By 3 months, the effect on their ankylosing spondylitis remained, creatinine was at 98 μmol/L, with a glomerular filtration rate of 66 ml/min/1.73 m^2 in December 2014.

[3] = system: Patient with Rheumatoid Arthritis; test: Rheumatoid arthritis patient treated with degarelix 40 mg weekly; conditions: 240 mg loading
Description: • person with seropositive rheumatoid arthritis with disease duration of 22 years. • Fulfilled ACR 2010 classification criteria for rheumatoid arthritis.
• Had tried most therapies available (for example: Humira, Remicade, Enbrel, Actemra, several disease modifying anti-rheumatic drugs), previously without effect or intolerable side effects. • Offered experimental GnRH antagonist therapy, degarelix 40 mg every week with 240 mg loading dose at baseline.

[4] = ankylosing spondylitis patient, after 6 weeks
[5] = ankylosing spondylitis patient, by 3 months, December 2014
[6] = ankylosing spondylitis patient, by 6 weeks
[7] = ankylosing spondylitis patient, by 9 weeks

CC(=O)N[C@H](Cc1ccc2ccccc2c1)C(=O)N[C@H](Cc1ccc(Cl)cc1)C(=O)N[C@H](Cc1cccnc1)C(=O)N[C@@H](CO)C(=O)N[C@@H](Cc1ccc(NC(=O)[C@@H]2CC(=O)NC(=O)N2)cc1)C(=O)N[C@H](Cc1ccc(NC(N)=O)cc1)C(=O)N[C@@H](CC(C)C)C(=O)N[C@@H](CCCCNC(C)C)C(=O)N1CCC[C@H]1C(=O)N[C@H](C)C(N)=O [degarelix] (Ac-[d2Nal][dPhe(4-Cl)][d3Pal]S[Phe(4-NH2)](Dihydroorotyl(S))[dPhe(4-NHCONH2)]L[Lys(iPr)]P[dA]-NH2)
Peripheral GnRH (ELISA) (peripheral GnRH; Multiple Sclerosis Patient B, after 1 month, baseline 318): 210 pg/mL | Peripheral GnRH (ELISA) (peripheral GnRH; Psoriasis Patient C, after 3 months, baseline 300): 274 pg/mL | Peripheral GnRH (ELISA) (peripheral GnRH; RA Patient A, after 3 months, baseline 394): 359 pg/mL | PASI score reduction ([1]; Psoriasis Patient C): more than 20% | CRP ([1]; RA Patient A, from 142 mg/L): 54 mg/L | DAS score ([1]; RA Patient A, from 8.6): 4.2 | Glucose fasting (4.0-6.0 mmol/L) ([2]; 10 Nov. 2014 (9 weeks), 10 Sep. 2014 7.4): 6.5 mmol/L | Glomerular filtration rate (>60) ([2]; 10 Nov. 2014): 65 ml/min/1.73 m^2 | Creatinine (60-105 μmol/L) ([2]; 10 Nov. 2014): 99 µmol/L | Urate (230-480 μmol/L) ([2]; 10 Nov. 2014): 426 µmol/L | CRP ([2]; 10 Nov. 2014): <5 | Glomerular filtration rate (>60) ([2]; 24 Sep. 2014): 55↓ ml/min/1.73 m^2 | Creatinine (60-105 μmol/L) ([2]; 24 Sep. 2014): 114↑ μmol/L | Urate (230-480 μmol/L) ([2]; 24 Sep. 2014): 512↑ μmol/L | ESR (<20 mm) ([2]; 24 Sep. 2014, 10 Sep. 2014 (start) 46): 31↑ mm | CRP ([2]; 24 Sep. 2014): <5 | ESR (<20 mm) ([2]; 27 Oct. 2014, 10 Sep. 2014 46): 28↑ mm | Glomerular filtration rate (>60) ([2]; 27 Oct. 2014): 56↓ ml/min/1.73 m^2 | Creatinine (60-105 μmol/L) ([2]; 27 Oct. 2014): 111↑ μmol/L | Urate (230-480 μmol/L) ([2]; 27 Oct. 2014): 495↑ μmol/L | CRP ([2]; 27 Oct. 2014): <5 | Lumbar flexion [2, 4]: increased | Maximum arm abduction [2, 4]: increased | ASAS response achieved ([2]; ankylosing spondylitis patient, at least 80% improvement): ASAS 80 | BASDAI ([2]; ankylosing spondylitis patient, by 2 weeks): 6.8 | Creatinine [2, 5]: 98 µmol/L | Glomerular filtration rate [2, 5]: 66 ml/min/1.73 m^2 | BASDAI reduction [2, 6]: 2.9 units | BASDAI [2, 6]: 5.8 | Morning stiffness ([2]; ankylosing spondylitis patient, by 6 weeks, baseline 4 hours): 2 h | BASDAI reduction [2, 7]: 7.1 units | BASDAI score improvement [2, 7]: 82% | Kidney function [2, 7]: normalized | CRP ([3]; from 87 mg/L): 67 mg/L | ESR ([3]; from 62 mm): 38 mm | Disease activity score (DAS) ([3]; at 2 weeks, from 7.3): 6.7
